Results reported in patent US9050346B2, “Bromodomain inhibitors” (AbbVie Inc., priority 2013, dated 2015).

Experiments:
BRD4 (BDI_K57-E168) = molecular target: T1, BRD4 (BDI_K57-E168) (Homo sapiens, UniProt O60885); experiment: TR-FRET bromodomain binding assay, BRD4 first bromodomain; settings: His-tagged BD1, 100 nM Alexa647 probe; Ki calculated from IC50; dilution protocol A-G
T1 construct: BD1: amino acids K57-E168; made in house
Procedure: (§1) A time-resolved fluorescence resonance energy transfer (TR-FRET) assay was used to determine the affinities of compounds of the Examples listed in Table 1 for each bromodomain of BRD4. His-tagged first (BD1: amino acids K57-E168) and second (BD2: amino acids E352-E168) bromodomains of BRD4 were expressed and purified. An Alexa647-labeled BET-inhibitor was used as the fluorescent probe in the assay.
(§2) Compound dilution series were prepared in DMSO via an approximately 3-fold serial dilution from one of the following: • Assay method A: 2.5 mM-800 nM • Assay method B: 2.5 mM-797 nM • Assay method C: 1250 μM-21 nM • Assay method D: 500 μM-8.5 nM • Assay method E: 0.47 mM to 7.8 nM • Assay method F: 250 μM-4.2 nM • Assay method G: 0.047 mM to 0.78 nM or 5-fold serial dilution from Assay Method A or Assay Method B.
(§3) For Assay methods A, C, D, and F: Compounds were then diluted 6:100 in assay buffer (20 mM Sodium Phosphate, pH 6.0, 50 mM NaCl, 1 mM Ethylenediaminetetraacetic acid, 0.01% Triton X-100, 1 mM DL-Dithiothreitol) to yield 3× working solutions. Six microliters (μL) of the working solution was then transferred to white, low-volume assay plates (Costar #3673). A 1.5× assay mixture containing His-tagged bromodomain, Europium-conjugated anti-His antibody (Invitrogen PV5596) and the Alexa-647-conjugated probe molecule was also prepared. Twelve μL of this solution were added to the assay plate to reach a final volume of 18 μL.
(§4) For Assay methods B, E, and G: Compound dilutions were added directly into white, low-volume assay plates (Perkin Elmer Proxiplate 384 Plus#6008280) using a Labcyte Echo in conjunction with Labcyte Access and Thermo Multidrop CombinL robotics. Compounds were then suspended in eight microliters (μL) of assay buffer (20 mM Sodium Phosphate, pH 6.0, 50 mM NaCl, 1 mM Ethylenediaminetetraacetic acid disodium salt dihydrate, 0.01% Triton X-100, 1 mM DL-Dithiothreitol) containing His-tagged bromodomain, Europium-conjugated anti-His antibody (Invitrogen PV5596) and Alexa-647-conjugated probe.
(§5) The final concentration of 1× assay mixture for assay methods A, B, C, D, E, F, and G contains 2% DMSO, 8 nM His-tagged bromodomain, 1 nM Europium-conjugated anti-His-tag antibody and 100 nM or 30 nM probe (for BDI or BDII, respectively) and compound concentration in the range of: 50 μM-16 nM for method A, 49.02 μM-15.63 nM for method B, 25 μM-423 pM for method C, 10 μM-169 pM for method D, 9.19 μM-150 pM for method E, 5 μM-85 pM for method F, and 0.92 μM-15 pM for method G.
(§6) After a one-hour equilibration at room temperature, TR-FRET ratios were determined using an Envision multilabel plate reader (Ex 340, Em 495/520).
(§7) TR-FRET data were normalized to the means of 24 no-compound controls (“high”) and 8 controls containing 1 μM un-labeled probe (“low”). Percent inhibition was plotted as a function of compound concentration and the data were fit with the 4 parameter logistic equation to obtain IC50s Inhibition constants (Ki) were calculated from the IC50s, probe Kd and probe concentration. Typical Z′ values were between 0.65 and 0.75. The minimum significant ratio was determined to evaluate assay reproducibility (Eastwood et al., (2006) J Biomol Screen, 11: 253-261). The MSR was determined to be 2.03 for BDI and 1.93 for BDII, and a moving MSR (last six run MSR overtime) for both BDI and BDII was typically <3.

BRD4 (BDII_E352-M457) = molecular target: T2, BRD4 (BDII_E352-M457) (Homo sapiens, UniProt O60885); experiment: TR-FRET bromodomain binding assay, BRD4 second bromodomain
T2 construct: made in house
Procedure: as §1, §2, §3, §4, §5, §6, §7

[1] = test system: breast cancer cell line MX-1; experiment: MX-1 cell line proliferation assay (3-day, Cell Titer Glo); format: cell-based; settings: Homo sapiens, MX1, MX-1 cells, 72 h, top concentration 3 μM, read-out: Cellular proliferation: EC50
Procedure: The impact of compounds of the Examples on cancer cell proliferation was determined using the breast cancer cell line MX-1 (ATCC) in a 3-day proliferation assay and the data are reported in Table 1. MX-1 cells were maintained in RPMI 1640 medium (Sigma) supplemented with 10% FBS at 37 C.° and an atmosphere of 5% CO2. For compound testing, MX-1 cells were plated in 96-well black bottom plates at a density of 5000 cells/well in 90 μL of culture media and incubated at 37° overnight to allow cell adhesion and spreading. Compound dilution series were prepared in DMSO via a 3-fold serial dilution from 3 mM to 0.1 μM. The DMSO dilution series were then diluted 1:100 in phosphate buffered saline, and 10 μL of the resulted solution were added to the appropriate wells of the MX-1 cell plate. The final compound concentrations in the wells were 3, 1, 0.3, 0.1, 0.03, 0.01, 0.003, 0.001, 0.0003 and 0.0001 μM.
Luminescence readings from the Cell Titer Glo assay were normalized to the DMSO treated cells and analyzed using the GraphPad Prism software with sigmoidal curve fitting to obtain EC50s. The minimum significant ratio (MSR) was determined to evaluate assay reproducibility (Eastwood et al., (2006) J Biomol Screen, 11: 253-261).

SMILES | Ki (BRD4 (BDI_K57-E168)) | Ki (BRD4 (BDII_E352-M457)) | EC50 [1]
CCOC(=O)c1cc2c(-c3ccccc3Oc3ccc(F)cc3F)[nH]c(C)c2c(=O)[nH]1 [Example 21, ethyl 1-[2-(2,4-difluorophenoxy)phenyl]-3-methyl-4-oxo-4,5-dihydro-2H-pyrrolo[3,4-c]pyridine-6-carboxylate] | 24.8 nM | 285 nM | 104 nM
Cc1[nH]c(-c2ccccc2Oc2ccc(F)cc2F)c2cc(C(N)=O)[nH]c(=O)c12 [Example 23, 1-[2-(2,4-difluorophenoxy)phenyl]-3-methyl-4-oxo-4,5-dihydro-2H-pyrrolo[3,4-c]pyridine-6-carboxamide] | 6.25 nM | 45.1 nM | 60.8 nM
Cc1[nH]c(-c2ccccc2Oc2ccccc2)c2cc(C(=O)NCCN3CCCC3)[nH]c(=O)c12 [Example 25, 3-methyl-4-oxo-1-(2-phenoxyphenyl)-N-[2-(pyrrolidin-1-yl)ethyl]-4,5-dihydro-2H-pyrrolo[3,4-c]pyridine-6-carboxamide] | 3.12 nM | 92.3 nM | 163 nM
Cc1[nH]c(-c2ccccc2Oc2ccccc2)c2cc(C(=O)Nc3nccs3)[nH]c(=O)c12 [Example 26, 3-methyl-4-oxo-1-(2-phenoxyphenyl)-N-(thiazol-2-yl)-4,5-dihydro-2H-pyrrolo[3,4-c]pyridine-6-carboxamide] | 56.8 nM | 118 nM | 442 nM
Cc1[nH]c(-c2ccccc2Oc2ccccc2)c2cc(C(=O)NCCN3CCOCC3)[nH]c(=O)c12 [Example 27, 3-methyl-N-(2-morpholinoethyl)-4-oxo-1-(2-phenoxyphenyl)-4,5-dihydro-2H-pyrrolo[3,4-c]pyridine-6-carboxamide] | 3.81 nM | 47 nM | 98.9 nM
Cc1[nH]c(-c2ccccc2Oc2ccccc2)c2cc(C(=O)Nc3ccncc3)[nH]c(=O)c12 [Example 28, 3-methyl-4-oxo-1-(2-phenoxyphenyl)-N-(pyridin-4-yl)-4,5-dihydro-2H-pyrrolo[3,4-c]pyridine-6-carboxamide] | 42.7 nM | 16.8 nM | 515 nM
Cc1[nH]c(-c2ccccc2Oc2ccccc2)c2cc(C(=O)N3CCC(O)CC3)[nH]c(=O)c12 [Example 30, 6-(4-hydroxypiperidine-1-carbonyl)-3-methyl-1-(2-phenoxyphenyl)-2H-pyrrolo[3,4-c]pyridin-4(5H)-one] | 92.6 nM | 48.8 nM | 1350 nM
Cc1[nH]c(-c2ccccc2Oc2ccccc2)c2cc(C(=O)NCc3ccco3)[nH]c(=O)c12 [Example 31, N-(furan-2-ylmethyl)-3-methyl-4-oxo-1-(2-phenoxyphenyl)-4,5-dihydro-2H-pyrrolo[3,4-c]pyridine-6-carboxamide] | 87.6 nM | 155 nM | 182 nM
Cc1[nH]c(-c2cc(Cl)ccc2Oc2ccc(F)cc2F)c2cc(C(N)=O)[nH]c(=O)c12 [Example 32, 1-[5-chloro-2-(2,4-difluorophenoxy)phenyl]-3-methyl-4-oxo-4,5-dihydro-2H-pyrrolo[3,4-c]pyridine-6-carboxamide] | 22.8 nM | 158 nM | 102 nM
CNC(=O)c1cc2c(-c3cc(C(F)(F)F)ccc3Oc3ccc(F)cc3F)[nH]c(C)c2c(=O)[nH]1 [Example 34, 1-[2-(2,4-difluorophenoxy)-5-(trifluoromethyl)phenyl]-N,3-dimethyl-4-oxo-4,5-dihydro-2H-pyrrolo[3,4-c]pyridine-6-carboxamide] | 77 nM | 160 nM | 355 nM
Cc1[nH]c(-c2ccccc2Oc2ccccc2)c2cc(C(=O)NC3CCN(C)CC3)[nH]c(=O)c12 [Example 35, 3-methyl-N-(1-methylpiperidin-4-yl)-4-oxo-1-(2-phenoxyphenyl)-4,5-dihydro-2H-pyrrolo[3,4-c]pyridine-6-carboxamide] | 5.21 nM | 48.5 nM | 53.6 nM
Cc1[nH]c(-c2ccccc2Oc2ccccc2)c2cc(C(=O)NCC3CCOC3)[nH]c(=O)c12 (stereo not drawn) [Example 36, 3-methyl-4-oxo-1-(2-phenoxyphenyl)-N-(tetrahydrofuran-3-ylmethyl)-4,5-dihydro-2H-pyrrolo[3,4-c]pyridine-6-carboxamide] | 8.83 nM | 20.9 nM | 188 nM
Cc1[nH]c(-c2ccccc2Oc2ccccc2)c2cc(C(=O)NC3CCOC3)[nH]c(=O)c12 (stereo not drawn) [Example 37, 3-methyl-4-oxo-1-(2-phenoxyphenyl)-N-(tetrahydrofuran-3-yl)-4,5-dihydro-2H-pyrrolo[3,4-c]pyridine-6-carboxamide] | 10.1 nM | 13.9 nM | 161 nM
Cc1[nH]c(-c2ccccc2Oc2ccccc2)c2cc(C(=O)NC3CCOCC3)[nH]c(=O)c12 [Example 38, 3-methyl-4-oxo-1-(2-phenoxyphenyl)-N-(tetrahydro-2H-pyran-4-yl)-4,5-dihydro-2H-pyrrolo[3,4-c]pyridine-6-carboxamide] | 16.6 nM | 29 nM | 300 nM
CCOC(=O)c1cc2c(-c3cc(S(C)(=O)=O)ccc3Oc3ccc(F)cc3F)[nH]c(C)c2c(=O)[nH]1 [Example 39, ethyl 1-[2-(2,4-difluorophenoxy)-5-(methylsulfonyl)phenyl]-3-methyl-4-oxo-4,5-dihydro-2H-pyrrolo[3,4-c]pyridine-6-carboxylate] | 12.1 nM | 51.8 nM | 222 nM
Cc1[nH]c(-c2cc(S(C)(=O)=O)ccc2Oc2ccc(F)cc2F)c2cc(C(N)=O)[nH]c(=O)c12 [Example 42, 1-[2-(2,4-difluorophenoxy)-5-(methylsulfonyl)phenyl]-3-methyl-4-oxo-4,5-dihydro-2H-pyrrolo[3,4-c]pyridine-6-carboxamide] | 22.4 nM | 56.9 nM | > 3000 nM
COCc1cc2c(-c3ccccc3Oc3ccccc3)[nH]c(C)c2c(=O)[nH]1 [Example 44, 6-(methoxymethyl)-3-methyl-1-(2-phenoxyphenyl)-2,5-dihydro-4H-pyrrolo[3,4-c]pyridin-4-one] | 66.7 nM | 424 nM | 233 nM
CCOC(=O)c1cc2c(-c3cc(F)ccc3OC3CCCCC3)[nH]c(C)c2c(=O)[nH]1 [Example 48, ethyl 1-[2-(cyclohexyloxy)-5-fluorophenyl]-3-methyl-4-oxo-4,5-dihydro-2H-pyrrolo[3,4-c]pyridine-6-carboxylate] | 5.05 nM | 96.4 nM | 139 nM
